Tests used:
[1] = system: outer mitochondrial membrane permeability; experiment: NADH oxidation assay in mitochondria isolated from HCT116 cells; format: cell-based, human; conditions: 20 µM, 8 h
Experimental: (§1) Fig. 6 Compound 8 blocks PKM2 mitochondrial translocation under nutritional stress and inhibits tumor growth in vivo. a Compound 8 blocks glucose starvation induced PKM2 mitochondrial translocation. Isolation of mitochondria and immunoblot of PKM2, tubulin and Tom 40 were carried out with or without compound 8 treatment. b Compound 8 disrupts interaction of PKM2 and VDAC3. HCT116 cells were transfected with HA-tagged PKM2, cells were harvested and subjected to stag pull down after 8 h 20 µM compound 8 treatment. c Compound 8 induces VDAC3 for degradation. cells were harvested and evaluated VDAC3 protein levels after 8 h 10 or 20 µM compound 8 treatment. d, e Compound 8 caused a decrease in the rate of NADH oxidation. After 8 h of treatment with 20 µM compound 8, HCT116 cells mitochondria were isolated for NADH oxidation assays. NAD/NADH ratios in HCT116 cell lysates were evaluated by LC–MS. f Compound 8 inhibited ATP production in HCT116 cells. g The tumor volume (n = 7) of HCT116 xenografts from mice with intraperitoneal injection of compound 8 and vehicle control […]
NADH oxidation in the mitochondria was measured by resuspending mitochondria isolated from HCT116 cells after knockdown or overexpression of PKM2, K433E, K433R, PKM1, or treatment with 20 μM compound 8 for 8 h in 25 mM NADH. Absorbance was monitored at λ = 340 nm. […]

[2] = target: PKM2 (Homo sapiens, UniProt P14618); experiment: fluorescent pyruvate kinase-lactate dehydrogenase (PK-LDH) coupled assay, PKM2; format: biochemical; parameters: His-tag (N); made in house; host or cells: Escherichia coli BL21; conditions: for selectivity for PKM2 over PKM1 and PKL: Supplementary Figure S4c
Experimental: A random screening of an in-house small molecule library (~1000 total molecules) was undertaken to identify new PKM2 modulators, which can block the interaction of PKM2 and VDAC3. The activity of these test compounds was assessed with a fluorescent PK-LDH coupled assay by a previously reported method (Supplementary Figure S4a)[37]. […] We undertook structural optimization by chemical modification. We designed new compounds utilizing a methyl group instead of the NP-1 chlorine moiety. Synthesis of target compounds was carried out according to the six-step protocol outlined in Supplementary Figure S4d, which was based on a previously described procedure[39],[40].
Human cDNA for PKM2, PKM1, and VDAC3 were separately cloned into a pET28a (+) and pGEX-4T-1 vector with an N-terminal His-tag and N-terminal GST-tag and purified from the Escherichia coli strain BL21 (Invitrogen) using Ni–agarose beads and GST agarose beads (Qiagen) as described previously. PKL was purchased from Sino Biological Inc. in China.
Pyruvate kinase activity was measured with a fluorescent pyruvate kinase–lactate dehydrogenase coupled assay as described previously. All compounds were tested in a kinetic mode by coupling the generation of pyruvate by pyruvate kinase to the depletion of NADH through lactate dehydrogenase. For PKM2, 40 μL of buffer (50 mM Tris–HCl, pH 7.5, 10 mM KCl, 5 mM MgCl2), 1 μL of compound and 5 μL of enzyme solution were dispensed into Corning black solid 96-well plates and incubated for 15 min. Totally, 55 μL of substrate mix (final concentration, 0.5 mM PEP, 4.0 mM ADP, 0.12 mM NADH, 0.25 mM FBP, and 1 unit LDH) were then added, and the plates were placed in a FlexStation3 (Molecular Devices), followed by determination of NADH fluorescence at 30 s exposure intervals for 3–6 min. Data were collected on a FlexStation3.

[3] = system: VDAC3; experiment: VDAC3 protein level (western blot) in HCT116 cells; format: cell-based, human; conditions: 10 or 20 µM, 8 h
From the text: HCT116 cell lysates were subject to immunoprecipitation with control IgG and anti-VDAC3 antibodies. d, e In vitro binding assay of purified His-tagged-PKM2 and GST-tagged-VDAC3. f K433E enhanced the interaction of PKM2 and VDAC3. Stagged-WT PKM2, a succinylation mimic K433E and a succinylation null mutant K433R and flag-VDAC3 were co-transfected into HCT116 cells for Stag bead pull down that specially pulls down Stagged proteins. g Glucose starvation enhanced the interaction of PKM2 and VDAC3. […]
as §1, with “Isolation of mitochondria and immunoblot of PKM2, tubulin and Tom 40 were carried out with or without compound 8 treatment. b Compound 8 disrupts interaction of PKM2 and VDAC3.” left out, “After 8 h of treatment with 20 µM compound 8, HCT116 cells mitochondria were isolated for NADH oxidation assays.” left out

Sequence of PKM2 (P14618 whole entry): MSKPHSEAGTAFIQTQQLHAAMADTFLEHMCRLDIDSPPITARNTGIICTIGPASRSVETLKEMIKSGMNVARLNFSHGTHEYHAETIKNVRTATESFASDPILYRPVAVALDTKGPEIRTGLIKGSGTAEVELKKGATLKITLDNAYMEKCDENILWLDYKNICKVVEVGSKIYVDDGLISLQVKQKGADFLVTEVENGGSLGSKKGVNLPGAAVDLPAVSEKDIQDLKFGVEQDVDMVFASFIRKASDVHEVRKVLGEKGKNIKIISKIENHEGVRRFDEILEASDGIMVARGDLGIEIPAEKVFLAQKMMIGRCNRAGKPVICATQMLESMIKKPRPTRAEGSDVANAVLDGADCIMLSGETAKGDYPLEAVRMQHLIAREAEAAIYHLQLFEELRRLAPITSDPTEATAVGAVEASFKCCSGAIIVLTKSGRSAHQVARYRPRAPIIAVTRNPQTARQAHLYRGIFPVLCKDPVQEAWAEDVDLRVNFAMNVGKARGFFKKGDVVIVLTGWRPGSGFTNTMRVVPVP

## CCCN(CCC)P(N)(=O)OCC1=CC(=O)c2ccccc2C1=O (stereo not drawn) [Compound 8]
[1]
  rate of NADH oxidation in purified mitochondria: reduced
[2]
  selectivity for PKM2 over PKM1 and PKL: markedly inhibited PKM2, but inhibited PKM1 and PKL to much smaller extent
[2]; listed as compound 8
  selectivity for PKM2 over PKM1 and PKL: PKM2 inhibitor of high selectivity
[2]; ratio of IC50 values of Table 1
  IC50 on PKM2 relative to NP-1: about threefold lower than that of NP-1
[2]; recombinant enzyme, PK-LDH coupled assay, 15 min preincubation, read-out: IC50 (PKM2)
  IC50: 770 ± 300 nM
[3]
  VDAC3 protein level: caused VDAC3 degradation
